Consider twelve molecules from PubChem BioAssay (NCI).

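Five concentrations, 48 hours, 96-well plates. GI50 marks 50% less growth. TGI: concentration producing complete growth inhibition.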

Some test systems named below: 786-0 renal; BT-549 breast; HCT-116 colon; HS 578T breast; M14 melanoma; OVCAR-3 ovarian; P388 leukemia; SF-539 CNS; SN12K1 renal; UACC-62 melanoma; UO-31 renal; XF 498 CNS; LXFL 529 NSCLC.
Holding throughout (assay): NCI tumour cell line growth inhibition, 48 h

In the case of `CNC=O`, the TGI with 786-0 renal, in the assay with BT-549 breast, in the assay with HCT-116 colon, in the assay on HS 578T breast, in the assay on M14 melanoma and in the assay with OVCAR-3 ovarian was greater than 10000 µM each time. The TGI in the assay with P388 leukemia was greater than 5620 µM; with SF-539 CNS, greater than 10000 µM; in the assay with SN12K1 renal, greater than 10000 µM; in the assay with UACC-62 melanoma it was greater than 9810 µM; in the assay on UO-31 renal, greater than 10000 µM; with XF 498 CNS, greater than 10000 µM.

Consider `Nc1ccccc1Sc1ccc(Cl)cc1`, for which the TGI with HCT-116 colon is greater than 100 µM; in the assay on LXFL 529 NSCLC, greater than 100 µM; in the assay with M14 melanoma, greater than 100 µM; in the assay on OVCAR-3 ovarian it was 72.1 µM; in the assay on SF-539 CNS, greater than 100 µM; in the assay on UACC-62 melanoma it was greater than 100 µM. Also, the TGI in the assay on UO-31 renal turned out to be 51 µM.

`COc1cc(/C=C/C(=O)O)ccc1O`: the TGI with 786-0 renal, with HCT-116 colon, in the assay with HS 578T breast, in the assay on M14 melanoma, with OVCAR-3 ovarian and with SF-539 CNS was greater than 100 µM throughout. Further, in the assay on UO-31 renal, the TGI was greater than 100 µM.

For the molecule `COc1cc2cnc3c(c2cc1OC)Cc1cc2c(cc1-3)OCO2`, the TGI in the assay with 786-0 renal was greater than 51.9 µM; with BT-549 breast it was 50.2 µM; in the assay with HCT-116 colon, greater than 50.3 µM; in the assay with HS 578T breast, greater than 100 µM; in the assay on M14 melanoma, greater than 100 µM; in the assay on SF-539 CNS, 31.8 µM. In addition, the TGI in the assay with UACC-62 melanoma was 35.1 µM; with UO-31 renal, greater than 43.3 µM. The GI50 is 0.391 µM in the assay on BT-549 breast; less than 0.01 µM in the assay on HS 578T breast; less than 0.0113 µM with M14 melanoma; less than 0.0132 µM in the assay with SF-539 CNS; less than 0.01 µM in the assay on UACC-62 melanoma; less than 0.0193 µM in the assay with UO-31 renal.

Take `C/C(=C1/N=C(c2cc([N+](=O)[O-])ccc2Cl)N(C2=CC=C(Cl)CC2)C1=O)c1cc2ccccc2oc1=O`: the TGI in the assay on HCT-116 colon, in the assay on LXFL 529 NSCLC, in the assay with M14 melanoma, in the assay on OVCAR-3 ovarian, with SF-539 CNS and in the assay with UACC-62 melanoma was greater than 100 µM throughout. This molecule also displayed a TGI with UO-31 renal greater than 100 µM.

Consider `CCCCN(CCCC)c1ccc(N=Nc2ccc(S(=O)(=O)O)cc2)cc1`, for which the TGI is greater than 100 µM in the assay with BT-549 breast; 29.4 µM in the assay on HCT-116 colon; greater than 100 µM with M14 melanoma; greater than 100 µM in the assay on OVCAR-3 ovarian; 33.4 µM with SF-539 CNS; greater than 100 µM in the assay with UACC-62 melanoma. In the assay with UO-31 renal, this molecule came in with a TGI greater than 100 µM.

On to `O=S(=O)(O)c1ccc(N=Nc2ccc(N=Nc3ccc(/C=C/c4ccc(N=[N+]([O-])c5ccc(/C=C/c6ccc(N=Nc7ccc(N=Nc8ccc(S(=O)(=O)O)cc8)c8ccccc78)cc6S(=O)(=O)O)c(S(=O)(=O)O)c5)cc4S(=O)(=O)O)c(S(=O)(=O)O)c3)c3ccccc23)cc1`, for which the TGI in the assay with HCT-116 colon, with OVCAR-3 ovarian, in the assay on P388 leukemia, with SF-539 CNS, in the assay with SN12K1 renal and in the assay with UACC-62 melanoma was greater than 100 µM in each case. Further, the TGI in the assay with UO-31 renal and with XF 498 CNS was greater than 100 µM throughout.

On to `CC1=CC[C@H](C)C(C)(C)C1/C=C/C(C)=C/CC[C@@]1(CO)[C@H](CCCO)/C(=C(/C)C=O)CC[C@]1(C)O` (some centres not stated), for which the TGI in the assay with LXFL 529 NSCLC stood at 20.2 µM; with M14 melanoma it was 12.3 µM; with SF-539 CNS it was 20.8 µM; with UO-31 renal, 21.2 µM; in the assay on XF 498 CNS, 19.9 µM.

Regarding `CC(=O)/C=C/c1c[nH]c(=O)[nH]c1=O`, the TGI in the assay on HCT-116 colon turned out to be 388 µM; in the assay on OVCAR-3 ovarian, 608 µM; in the assay on P388 leukemia, 718 µM; in the assay with SF-539 CNS, 601 µM; with SN12K1 renal, 341 µM; with UACC-62 melanoma, 574 µM. The TGI in the assay with UO-31 renal was 397 µM; in the assay with XF 498 CNS, 151 µM.

With `C=CCN1C(=O)/C(=C/c2cccs2)N=C1SC1OC(COC(=O)c2ccccc2)C(OC(=O)c2ccccc2)C1OC(=O)c1ccccc1` (configuration not stated), the TGI with BT-549 breast, in the assay with OVCAR-3 ovarian, in the assay with SF-539 CNS and with UACC-62 melanoma was greater than 100 µM each time.

For `C=C1C(C[C@@H]2O[C@H]3C[C@H]4O[C@@]5(C[C@@H]6O[C@]7(C[C@H](C)[C@@H]8O[C@@H]9CC(C(O)CO)O[C@@H]9C[C@@H]8O7)C[C@H](C)[C@@H]6O5)C[C@H]4O[C@H]3[C@H](C)[C@H]2O)O[C@@H](CC[C@@H]2O[C@@H](CC[C@@]34CC5O[C@H]6C(O[C@H]7CC[C@H](CC(=O)OC)O[C@@H]7[C@@H]6O3)[C@H]5O4)CC2=C)C[C@H]1C` (some centres not stated), the TGI in the assay on BT-549 breast is 0.00316 µM; with M14 melanoma it was greater than 1 µM; in the assay with OVCAR-3 ovarian, greater than 1 µM; in the assay with UACC-62 melanoma, greater than 1 µM; in the assay with UO-31 renal, greater than 1 µM.

Regarding `C[C@@H]1CCN(C(=O)CC#N)C[C@@H]1N(C)c1ncnc2[nH]ccc12`, the GI50 in the assay with HS 578T breast is 30.4 µM; in the assay on OVCAR-3 ovarian it was greater than 100 µM; with SF-539 CNS, 39.3 µM; in the assay on UO-31 renal, 31.3 µM. Further, the TGI with HS 578T breast, with OVCAR-3 ovarian, with SF-539 CNS and in the assay with UO-31 renal was greater than 100 µM throughout.
